The values below come from patent US10889611B2, “Sialyltransferase inhibitors and uses thereof” (Academia Sinica, priority 2015, dated 2021).

Experiment [1] deals with T1, α2,3(O)-sialyltransferase ST3GALI (Rattus norvegicus, UniProt Q6H8N0).
T1 construct: purchased Calbiochem
T1 sequence (Q6H8N0 1-340): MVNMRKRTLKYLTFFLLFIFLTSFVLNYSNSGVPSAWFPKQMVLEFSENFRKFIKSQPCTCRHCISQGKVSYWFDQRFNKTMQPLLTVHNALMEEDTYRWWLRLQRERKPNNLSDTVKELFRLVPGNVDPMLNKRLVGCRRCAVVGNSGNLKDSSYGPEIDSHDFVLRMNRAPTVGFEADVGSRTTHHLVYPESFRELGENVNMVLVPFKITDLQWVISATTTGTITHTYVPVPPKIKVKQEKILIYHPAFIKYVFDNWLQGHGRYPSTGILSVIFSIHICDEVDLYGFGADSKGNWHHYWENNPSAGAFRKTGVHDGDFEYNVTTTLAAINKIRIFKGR
As to the kind of experiment: Sialyltransferase inhibition assay, ST3GALI (reverse-phase HPLC). It counts as biochemical. To be noted: read-out: ST3GALI inhibition percentage. A digest of the protocol:
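Rat ST3Gal(I) (1.4 mU) was incubated with 2.5 mM T-antigen and 1 mM CMP-Neu5Ac in 200 mM MES, 100 mM NaCl, 0.5 mM EDTA and 0.01% Triton X-100 with varied inhibitor, 15 min at 37 °C, then heat-quenched. Sialylated product was quantified by reverse-phase HPLC, and kinetic values came from nonlinear regression of initial rates.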

Experiment [2] addresses T2, α2,3(N)-sialyltransferase ST3GALIII (Rattus norvegicus, UniProt Q02734).
T2 construct: purchased Calbiochem
T2 sequence (Q02734 1-374): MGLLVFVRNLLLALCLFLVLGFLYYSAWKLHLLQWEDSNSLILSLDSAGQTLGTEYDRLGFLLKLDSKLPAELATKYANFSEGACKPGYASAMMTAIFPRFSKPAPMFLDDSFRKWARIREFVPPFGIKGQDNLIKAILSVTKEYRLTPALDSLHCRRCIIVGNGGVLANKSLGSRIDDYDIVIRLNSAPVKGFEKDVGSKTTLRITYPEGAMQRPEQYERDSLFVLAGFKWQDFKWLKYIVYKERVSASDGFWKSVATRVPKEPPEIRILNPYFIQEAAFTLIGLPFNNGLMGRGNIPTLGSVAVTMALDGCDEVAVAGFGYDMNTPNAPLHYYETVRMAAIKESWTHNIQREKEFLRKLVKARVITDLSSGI
As to the kind of experiment: Sialyltransferase activity assay, ST3GALIII. To be noted: α2,3-N-link; read-out: IC50 (μM) ST3GALIII. It counts as biochemical.

For a further experiment, the system named is PANC-1 cells. As to the kind of experiment: SNA lectin staining of 2,6-sialylation by FACS in PANC-1 cells. It is filed as cell-based, human. As to conditions: PANC-1 cells grown in fructose-containing medium, FIG. 3. The source says:
PANC-1 cells were first grown in glucose-containing or fructose-containing medium treated with or without the presence of the test compound (i.e., FCW34 or AL10, which was used as a positive control), then the cells were stained with SNA lectin to measure 2,6-sialylation level by FACS analysis.
In general terms: Flow cytometry measures light scatter and fluorescence of single cells or particles in a stream.

Experiment [3] has as its target T3, α2,6(N)-sialyltransferases ST6GALI (Homo sapiens, UniProt P15907).
T3 construct: purchased RnDSystems.com (R&D Systems)
T3 sequence (P15907 1-406): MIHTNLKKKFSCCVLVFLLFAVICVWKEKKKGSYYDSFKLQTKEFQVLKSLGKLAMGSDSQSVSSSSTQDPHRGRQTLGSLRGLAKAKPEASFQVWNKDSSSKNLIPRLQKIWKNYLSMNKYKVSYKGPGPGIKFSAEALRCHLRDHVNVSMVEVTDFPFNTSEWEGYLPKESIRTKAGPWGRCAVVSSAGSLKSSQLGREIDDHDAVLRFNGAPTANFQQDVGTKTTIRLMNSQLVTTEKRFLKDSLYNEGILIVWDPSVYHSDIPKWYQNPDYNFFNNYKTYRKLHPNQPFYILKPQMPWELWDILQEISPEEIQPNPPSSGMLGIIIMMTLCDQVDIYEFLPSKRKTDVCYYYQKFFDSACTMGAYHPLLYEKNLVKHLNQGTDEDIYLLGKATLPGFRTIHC
The experiment can be described thus: Sialyltransferase inhibition assay, ST6GALI (reverse-phase HPLC). It is filed as biochemical. A digest of the protocol:
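Human ST6GalI (1.4 mU) incubated 15 min at 37° C with 25 μM Galβ1-4GlcNAc, 1 mM CMP-Neu5Ac and inhibitor in 200 mM MES, 100 mM NaCl, 0.5 mM EDTA, 0.01% Triton X-100. Sialylated product quantified by reverse-phase HPLC; kinetics from nonlinear fitting of initial rates.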

For the compound `C[C@H](CCC(=O)OCCOCCOCCN=[N+]=[N-])C1CC[C@H]2[C@@H]3CC[C@@H]4C[C@H](OC(=O)[C@H](CC(=O)O)Nc5ccc([N+](=O)[O-])c6nonc56)CC[C@]4(C)[C@H]3CC[C@]12C` (stereo partly drawn) [Compound 3, (3S)-4-(((3R,5R,8R,9S,10S,13R,14S)-17-((R)-5-(2-(2-(2-azidoethoxy)ethoxy)ethoxy)-5-oxopentan-2-yl)-10,13-dimethylhexadecahydro-1H-cyclopenta[a]phenanthren-3-yl)oxy)-3-((7-nitrobenzo[c][1,2,5]oxadiazol-4-yl)amino)-4-oxobutanoic acid], the inhibition at 500 µM in experiment [1] (measured at 500 μM) turned out to be 0%. In addition, the inhibition at 1000 µM in experiment [1] (measured at 1 mM) is 60%. Moreover, the IC50 in experiment [2] was 1.74 ± 0.09 µM; in experiment [3] (α2,6-N-link, read-out: IC50 (μM) ST6GALI) it was 3.59 ± 0.38 µM. The “level of 2,6-sialylation” value in the experiment with PANC-1 cells is recorded as “greatly reduced”. In experiment [3], the “selectivity ratio ST3GALI/ST6GALI” value is recorded as over 139.

A word on the inhibition: it is how much of the control response was suppressed. By IC50 is commonly meant the concentration at which inhibition is half-maximal.
